Experimental data as given in patent US12030877B2, “Prostaglandin E synthase inhibitors and methods for utilizing the same” (University of Kentucky Research Foundation, priority 2016, dated 2024).
Where two headings read alike, the source gives them in different places.

Tests used:
mPGES-1 Mouse enzyme = biological target: T1, mPGES-1 Mouse enzyme (Mus musculus, UniProt Q9JM51); assay: mPGES-1 enzyme activity assay (PGE2 enzyme immunoassay), mouse enzyme; assay type: biochemical; details: for IC50: recombinant microsomal enzyme, means ± SD, triplicate; for inhibition at 10 µM: compound at a concentration of 10 μM, read-out: % inhibition of the compound against mPGES-1, Mouse enzyme
T1 construct: made in house; host or cells: FreeStyle 293-F cells, crude microsomal preparation
T1 sequence (Q9JM51 1-153): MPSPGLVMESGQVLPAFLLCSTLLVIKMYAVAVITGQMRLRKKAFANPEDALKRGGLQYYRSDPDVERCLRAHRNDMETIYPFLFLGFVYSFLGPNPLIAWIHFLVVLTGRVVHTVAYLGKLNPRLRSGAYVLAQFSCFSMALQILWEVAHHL
Protocol: (§1) Studies were conducted to characterize the inhibitory activity against recombinant mPGES-1 of the compounds synthesized in accordance with Examples 1-4, and disclosed herein.
(§2) Briefly, FreeStyle 293-F cells were cultured following manufacturer's manual in FreeStyle 293 expression medium on orbit rotate shaker in 8% CO2 incubator at 37° C. Cells were transfected with 1.5 μg/mL of mPGES-1/pcDNA3 construct using FreeStyle Max reagent at a cell density of 1×10^6 for 2 days. Transfected cells were collected, washed, and sonicated in TSES buffer (15 mM Tris-HCl, pH 8.0 plus 0.25 M sucrose, 0.1 mM EDTA and 1 mM DTT) on ice. The broken cells were first centrifuged at 12,500×g for 10 min. The supernatant was further centrifuged at 105,000×g for 1 hr at 4° C. The pellet was washed and homogenized in PBS buffer. The crude microsomal mPGES-1 preparation was aliquoted and stored at −80° C. The crude protein concentration was 8 mg/mL.
(§3) The enzyme activity assays were performed on ice in 1.5 ml microfuge tubes by using the expressed mPGES-1. The reaction mixture contained: 0.2 M Na2HPO4/NaH2PO4, pH 7.2, 10 μL; 0.1 M GSH, 2.5 μL; diluted microsomal enzyme (80 μg/mL), 1 μL; PGH2 (0.31 mM in DMF), 5 μL; 1 μL inhibitor; and H2O in a final reaction volume of 100 μL. PGH2 was stored in dry ice and used to initiate the reaction.
(§4) Compounds were incubated with the enzyme for 15 min at room temperature before the addition of cold PGH2 (1 μM final) to initiate the enzyme reaction. After 30 s, 10 μL of SnCl2 (40 mg/mL) in ethanol was added to stop the reaction. The nonenzymatic conversion of PGH2 to PGE2 was performed in the same buffer devoid of enzyme. The reaction mixture was placed on ice until PGE2 production was determined by the PGE2 enzyme immunoassay as described earlier. IC50 values of the inhibitors were calculated by using the GraphPad Prism 4.0 program. The results are set forth in the tables provided in Examples 7-10.

mPGES-1 = biological target: T2, mPGES-1 (Homo sapiens, UniProt O14684); assay: mPGES-1 enzyme activity assay (PGE2 enzyme immunoassay), human enzyme; assay type: biochemical; set-up: made in house; host or cells: FreeStyle 293-F cells, crude microsomal preparation; details: for IC50: recombinant microsomal enzyme, means ± SD, triplicate
T2 sequence (O14684 1-152): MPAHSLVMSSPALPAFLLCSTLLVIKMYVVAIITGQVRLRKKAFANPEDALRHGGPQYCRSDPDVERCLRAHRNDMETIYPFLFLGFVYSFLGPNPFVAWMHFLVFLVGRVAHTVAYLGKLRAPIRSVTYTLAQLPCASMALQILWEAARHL
Protocol: as §1, §2, §3, §4

[1] = read-out: IC50 against mPGES-1, Human enzyme
[2] = IC50 against mPGES-1, Mouse enzyme
[3] = IC50 against mPGES-1, Human enzyme

Compound | IC50 (mPGES-1; [1]) [nM] | inhibition at 10 µM (mPGES-1 Mouse enzyme) [%] | IC50 (mPGES-1 Mouse enzyme; [2]) [nM] | also measured
O=C(CCCCCN1C(=O)C=CC1=O)Nc1ccc2c(c1)Cc1ccccc1-2 [III-02] | 613 ± 103 | – | – | IC50 (mPGES-1 Mouse enzyme; read-out: IC50 against mPGES-1, Mouse enzyme): 2880 ± 496 nM
O=C(CCCN1C(=O)C=CC1=O)Nc1ccc(OCCCC2CCCCC2)cc1 [III-03] | – | 55 | – | inhibition at 10 µM (mPGES-1; compound at a concentration of 10 μM, read-out: % inhibition of the compound against mPGES-1, Human enzyme): 63%
O=C1S/C(=C\c2ccc(Oc3cc([N+](=O)[O-])c([N+](=O)[O-])cc3F)c([N+](=O)[O-])c2)C(=O)N1CCCCC1CCCCC1 [IV-01] | 296 ± 48 | 91 | – | –
CCOc1ccc(-c2nn(-c3ccc(Cl)cc3)cc2C=C2C(=O)NC(=O)NC2=O)cc1 [VI-01] | 265 ± 96 | 28 | – | –
CCCCOc1ccc(-c2nn(-c3ccccc3)cc2C=C2C(=O)NC(=O)NC2=O)cc1 [VI-02] | 212 ± 34 | – | 2570 ± 628 | –
CCCCOc1ccc(-c2nn(-c3ccc(Cl)cc3)cc2C=C2C(=O)NC(=O)NC2=O)cc1 [VI-03] | 169 ± 41 | – | 357 ± 75 | –
CCCCCCOc1ccc(-c2nn(-c3ccc(Cl)cc3)cc2C=C2C(=O)NC(=O)NC2=O)cc1 [VI-04] | 285 ± 65 | 46 | – | –
CCCCCCCCOc1ccc(-c2nn(-c3ccccc3)cc2C=C2C(=O)NC(=O)NC2=O)cc1 [VI-05] | – | – | 2160 ± 188 | IC50 (mPGES-1; [3]): 323 ± 52 nM
CCCCCCCCOc1ccc(-c2nn(-c3ccc(Cl)cc3)cc2C=C2C(=O)NC(=O)NC2=O)cc1 [VI-06] | 361 ± 51 | – | 740 ± 108 | –
CCCCCCCCCCOc1ccc(-c2nn(-c3ccccc3)cc2C=C2C(=O)NC(=O)NC2=O)cc1 [VI-07] | – | 21 | – | IC50 (mPGES-1; [3]): 375 ± 127 nM
CCCCCCCCCCOc1ccc(-c2nn(-c3ccc(Cl)cc3)cc2C=C2C(=O)NC(=O)NC2=O)cc1 [VI-08] | 294 ± 83 | 24 | – | –
O=C1NC(=O)C(=Cc2cn(-c3ccccc3)nc2-c2ccc(OCc3ccccc3)cc2)C(=O)N1 [VI-09] | – | 0 | – | IC50 (mPGES-1; [3]): 598 ± 142 nM
CCOc1ccc(-c2nn(-c3ccc(Cl)cc3)cc2C=C2C(=O)NC(=S)NC2=O)cc1 [VI-10] | 95 ± 16 | 46 | – | –
CCCCOc1ccc(-c2nn(-c3ccccc3)cc2C=C2C(=O)NC(=S)NC2=O)cc1 [VI-11] | 92 ± 20 | – | 1260 ± 138 | –
CCCCOc1ccc(-c2nn(-c3ccc(Cl)cc3)cc2C=C2C(=O)NC(=S)NC2=O)cc1 [VI-12] | 56 ± 10 | – | 445 ± 83 | –
CCCCCCOc1ccc(-c2nn(-c3ccc(Cl)cc3)cc2C=C2C(=O)NC(=S)NC2=O)cc1 [VI-13] | 52 ± 15 | – | 1770 ± 1160 | –
CCCCCCCCOc1ccc(-c2nn(-c3ccccc3)cc2C=C2C(=O)NC(=S)NC2=O)cc1 [VI-14] | – | – | 1130 ± 131 | IC50 (mPGES-1; [3]): 113 ± 23 nM
CCCCCCCCOc1ccc(-c2nn(-c3ccc(Cl)cc3)cc2C=C2C(=O)NC(=S)NC2=O)cc1 [VI-15] | 92 ± 19 | – | 316 ± 30 | –
CCCCCCCCCCOc1ccc(-c2nn(-c3ccccc3)cc2C=C2C(=O)NC(=S)NC2=O)cc1 [VI-16] | – | 50 | – | IC50 (mPGES-1; [3]): 188 ± 31 nM
CCCCCCCCCCOc1ccc(-c2nn(-c3ccc(Cl)cc3)cc2C=C2C(=O)NC(=S)NC2=O)cc1 [VI-17] | 93 ± 14 | 56 | – | –
O=C1NC(=S)NC(=O)C1=Cc1cn(-c2ccccc2)nc1-c1ccc(OCc2ccccc2)cc1 [VI-18] | – | 25 | – | IC50 (mPGES-1; [3]): 797 ± 160 nM
CCOc1ccc(-c2nn(-c3ccc(Cl)cc3)cc2/C=C2\SC(=O)N(CC(=O)O)C2=O)cc1 [VII-10] | 41 ± 5 | 35 | – | –
CCCCCCOc1ccc(-c2nn(-c3ccc(Cl)cc3)cc2/C=C2\SC(=O)N(CC(=O)O)C2=O)cc1 [VII-11] | 36 ± 11 | 37 | – | –
CCOc1ccc(-c2nn(-c3ccc(Cl)cc3)cc2/C=C(/C#N)C(=O)O)cc1 [VII-12] | 282 ± 83 | 12 | – | –
CCCCOc1ccc(-c2nn(-c3ccccc3)cc2/C=C(/C#N)C(=O)O)cc1 [VII-13] | 296 ± 68 | 21 | – | –
